Test [1] concerns the target T1, Phospholipase A2 (Homo sapiens, UniProt P04054). The test can be described thus: Inhibition of PLA2 at 100 uM.
Target sequence in this assay (P04054 23-148 limits assumed): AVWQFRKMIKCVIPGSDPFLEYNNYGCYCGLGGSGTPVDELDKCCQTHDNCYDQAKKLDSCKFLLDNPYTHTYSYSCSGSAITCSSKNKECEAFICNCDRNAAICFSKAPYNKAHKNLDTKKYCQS
Another test has as its system P388. The test can be described thus: Cytotoxicity against mouse P388 cells. The format is functional, cell-based.
The next test relates to DLD-1. The test can be described thus: Cytotoxicity against human DLD1 cells. The format is functional, cell-based.
The target of test [2] is T1, Phospholipase A2. The experiment in a line: Inhibition of PLA2.
Target sequence in this assay (P04054 whole entry): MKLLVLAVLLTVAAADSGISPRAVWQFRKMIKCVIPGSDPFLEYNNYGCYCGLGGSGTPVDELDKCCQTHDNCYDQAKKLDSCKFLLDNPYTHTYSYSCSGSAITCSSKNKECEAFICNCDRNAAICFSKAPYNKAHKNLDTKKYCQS

Active and inactive are the calls of the source. The rule behind the calls is not given here.

Regarding `CC(C)C(C)/C=C/[C@@H](C)[C@H]1CC[C@@H]2[C@]1(C)CC[C@H]1[C@@]23O[C@@H]3[C@H](O)[C@@]2(O)C[C@@H](O)CC[C@]12C` (some centres not stated), the outcome at Phospholipase A2 [1] was inactive. Moreover, the IC50 in the test with P388 worked out at 20.2 µM; in the test on DLD-1 it was 22.4 µM.
Consider `CC(=O)O[C@H]1CC[C@]2(C)[C@H]3CC[C@]4(C)[C@@H]([C@H](C)/C=C/CC(C)C)CC[C@H]4[C@]34O[C@@H]4[C@H](OC(C)=O)[C@@]2(O)C1`, for which the outcome at Phospholipase A2 [1] was inactive. Further, the IC50 with P388 amounted to 11.6 µM; in the test on DLD-1 it was 12.6 µM.
For `CC(C)/C=C/[C@@H](C)[C@H]1CC[C@@H]2[C@]1(C)CC[C@H]1[C@@]23O[C@@H]3[C@H](O)[C@@]2(O)C[C@@H](O)CC[C@]12C`, the values for the IC50 against Phospholipase A2 [2], with P388 and in the test with DLD-1 were 21.5 µM, 28.7 µM and 24.6 µM, respectively.
For `CC(C)CCC[C@@H](C)[C@H]1CC[C@@H]2[C@]1(C)CC[C@H]1[C@@]23O[C@@H]3[C@H](O)[C@@]2(O)C[C@@H](O)CC[C@]12C` the same measures were 13.8 µM, 17.9 µM and 19.6 µM.
